Measured values as given in ChEMBL document CHEMBL1201862, “PubChem BioAssay data set” (2004).
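Compound exposure: 48 hours, 5 concentrations, 96-well plates. Here, GI50 denotes the concentration required for 50% inhibition of growth.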 Active and inactive are the calls of the source. No stated cut-off is given here; in the data, active = GI50 up to about 1.1 µM and inactive = higher.

Key:
Assay in all cases: NCI tumour cell line growth inhibition, 48 h
CAKI-1 = system: CAKI-1
CCRF-CEM = system: CCRF-CEM
COLO 205 = system: COLO 205
DU-145 = system: DU-145
EKVX = system: EKVX
HCT-15 = system: HCT-15
HOP-62 = system: HOP-62
LOX IMVI = system: LOX IMVI
MCF7 = system: MCF7
NCI-H522 = system: NCI-H522
OVCAR-3 = system: OVCAR-3
SF-295 = system: SF-295
SK-MEL-28 = system: SK-MEL-28
SN12C = system: SN12C
SW-620 = system: SW-620
T47D = system: T47D
TK-10 = system: TK-10
UACC-62 = system: UACC-62
HOP-92 = system: HOP-92
SR = system: SR

| Compound | GI50 (CAKI-1) | GI50 (CCRF-CEM) | GI50 (COLO 205) | GI50 (DU-145) | GI50 (EKVX) | GI50 (HCT-15) [µM] | GI50 (HOP-62) | GI50 (LOX IMVI) | GI50 (MCF7) | GI50 (NCI-H522) | GI50 (OVCAR-3) | GI50 (SF-295) | GI50 (SK-MEL-28) | GI50 (SN12C) | GI50 (SW-620) | GI50 (T47D) | GI50 (TK-10) | GI50 (UACC-62) | GI50 (HOP-92) | GI50 (SR) |
| --- | --- | --- | --- | --- | --- | --- | --- | --- | --- | --- | --- | --- | --- | --- | --- | --- | --- | --- | --- | --- |
| Cc1ccc2c(O)cc(-c3cc4ccccc4s3)nc2n1 | 55 µM (inactive) | > 100 µM (inactive) | > 100 µM (inactive) | > 100 µM (inactive) | 27.4 µM (inactive) | > 70.3 | 31.7 µM (inactive) | > 94.6 µM (inactive) | 17.7 µM (inactive) | 33.9 µM (inactive) | > 100 µM (inactive) | 40.1 µM (inactive) | > 100 µM (inactive) | > 100 µM (inactive) | > 100 µM (inactive) | 2.13 µM (inactive) | > 95.9 µM (inactive) | > 68.7 µM (inactive) |  |  |
| CCn1c(O)c(C(=O)NC(C)c2ccc([N+](=O)[O-])cc2)c(=O)n(CC)c1=S (centres undefined) | 2.55 µM (inactive) | 1.59 µM (inactive) | 1.81 µM (inactive) | 2.54 µM (inactive) | 3.23 µM (inactive) | 2.58 | 2.31 µM (inactive) | 2.31 µM (inactive) | 2.34 µM (inactive) |  | 2.16 µM (inactive) | 1 µM (active) | 4.27 µM (inactive) | 3.52 µM (inactive) | 2.43 µM (inactive) | 3.33 µM (inactive) | 4.06 µM (inactive) | 2.17 µM (inactive) | 2.75 µM (inactive) |  |
| COc1cc([C@@H]2c3cc4c(cc3[C@@H](c3c(O)cc(O)c5c3O[C@H](c3ccc(O)c(O)c3)[C@@H](O)C5)[C@H]3COC(=O)[C@H]23)OCO4)cc(OC)c1OC | 1.97 µM (inactive) | 50.7 µM (inactive) | 22.7 µM (inactive) | 1.73 µM (inactive) | 50.1 µM (inactive) | 39.2 | 1.88 µM (inactive) | 25.6 µM (inactive) | 1.72 µM (inactive) | 14.1 µM (inactive) | 1.64 µM (inactive) | 1.85 µM (inactive) | 48.4 µM (inactive) | 32.2 µM (inactive) | 32 µM (inactive) | 2.24 µM (inactive) | 1.79 µM (inactive) | 1.72 µM (inactive) | > 100 µM (inactive) |  |
| COc1cc(C2c3c(ccc4ccccc34)C(=O)C3CCC(=O)N32)cc(OC)c1O (centres undefined) |  | 19.9 µM (inactive) | > 25 µM (inactive) | > 25 µM (inactive) | > 25 µM (inactive) | > 25 | > 25 µM (inactive) |  | > 25 µM (inactive) |  | > 25 µM (inactive) | > 25 µM (inactive) | > 25 µM (inactive) | > 25 µM (inactive) | > 25 µM (inactive) | > 25 µM (inactive) |  | > 25 µM (inactive) | > 25 µM (inactive) | > 25 µM (inactive) |
| O=S(=O)(N1CCCCN(S(=O)(=O)C(F)(F)F)CCCN(S(=O)(=O)C(F)(F)F)CCCCN(S(=O)(=O)C(F)(F)F)CCCN(S(=O)(=O)C(F)(F)F)CCCCN(S(=O)(=O)C(F)(F)F)CCCN(S(=O)(=O)C(F)(F)F)CCCCN(S(=O)(=O)C(F)(F)F)CCC1)C(F)(F)F | > 31.6 µM (inactive) | > 31.6 µM (inactive) | > 100 µM (inactive) | > 31.6 µM (inactive) | > 31.6 µM (inactive) | > 31.6 | > 31.6 µM (inactive) | > 31.6 µM (inactive) | > 10 µM (inactive) | > 31.6 µM (inactive) | > 31.6 µM (inactive) | > 31.6 µM (inactive) | > 31.6 µM (inactive) | > 31.6 µM (inactive) | > 31.6 µM (inactive) | > 31.6 µM (inactive) | > 31.6 µM (inactive) | > 31.6 µM (inactive) | 11.1 µM (inactive) |  |
| N#Cc1nc(C(O)c2ccccc2)oc1N (centres undefined) | > 100 µM (inactive) | > 100 µM (inactive) | > 100 µM (inactive) | > 100 µM (inactive) | > 100 µM (inactive) |  | > 100 µM (inactive) | > 100 µM (inactive) | > 100 µM (inactive) | 76.6 µM (inactive) | > 100 µM (inactive) | > 100 µM (inactive) | > 100 µM (inactive) | > 100 µM (inactive) | > 100 µM (inactive) | > 100 µM (inactive) | > 100 µM (inactive) | > 100 µM (inactive) | > 100 µM (inactive) |  |
| CCOC(=O)c1cn(CC)c2ccc3c(c2c1=O)S(=O)(=O)C=C3 | > 100 µM (inactive) | > 100 µM (inactive) | > 100 µM (inactive) | > 100 µM (inactive) | > 100 µM (inactive) | > 100 | > 100 µM (inactive) | > 100 µM (inactive) | > 100 µM (inactive) | > 100 µM (inactive) | > 100 µM (inactive) | > 100 µM (inactive) | > 100 µM (inactive) | > 100 µM (inactive) | > 100 µM (inactive) | > 100 µM (inactive) | > 100 µM (inactive) | > 100 µM (inactive) | > 100 µM (inactive) |  |
| CC(NC(=O)C(N)CC(=O)O)NC(=O)N1CCCC1 (centres undefined) | > 100 µM (inactive) | > 100 µM (inactive) | > 100 µM (inactive) | > 100 µM (inactive) | > 100 µM (inactive) | > 100 | > 100 µM (inactive) | > 100 µM (inactive) | > 100 µM (inactive) | > 100 µM (inactive) | > 100 µM (inactive) | > 100 µM (inactive) | > 100 µM (inactive) | > 100 µM (inactive) | > 100 µM (inactive) | > 100 µM (inactive) | > 100 µM (inactive) | > 100 µM (inactive) | > 100 µM (inactive) |  |
| Cn1c(-c2ccccc2)cc(-c2ccc3c(c2)OCO3)c1-c1cccs1 |  | > 100 µM (inactive) | > 100 µM (inactive) | > 100 µM (inactive) | > 100 µM (inactive) | > 100 | > 100 µM (inactive) | > 100 µM (inactive) | > 100 µM (inactive) |  | > 100 µM (inactive) | > 100 µM (inactive) | > 100 µM (inactive) | > 100 µM (inactive) | > 100 µM (inactive) | > 100 µM (inactive) | > 100 µM (inactive) | > 100 µM (inactive) | > 100 µM (inactive) | > 100 µM (inactive) |
| O=C(O)C(C1NCCS1)N1Cc2ccccc2C1 (centres undefined) | > 100 µM (inactive) | > 100 µM (inactive) | > 100 µM (inactive) | > 100 µM (inactive) | > 100 µM (inactive) | > 100 | > 100 µM (inactive) | > 100 µM (inactive) | > 100 µM (inactive) |  | > 100 µM (inactive) | > 100 µM (inactive) | > 100 µM (inactive) | > 100 µM (inactive) | > 100 µM (inactive) | > 100 µM (inactive) | > 100 µM (inactive) | > 100 µM (inactive) | > 100 µM (inactive) | > 100 µM (inactive) |
| CCOC(=O)C1=NOC2(C=C(Br)C(=O)C(Br)=C2)C1 | 1.3 µM (inactive) | < 0.0132 µM (active) | 0.991 µM (active) | 6.7 µM (inactive) | 2.22 µM (inactive) | 2.03 | 6.41 µM (inactive) | 2.47 µM (inactive) | 2.45 µM (inactive) | 0.335 µM (active) | 1.39 µM (inactive) | 15.5 µM (inactive) | 6.75 µM (inactive) | 2.36 µM (inactive) | 0.37 µM (active) | 1.21 µM (inactive) | 0.902 µM (active) | 3.7 µM (inactive) | 1.82 µM (inactive) |  |
| COc1ccc2[nH]c3c(c2c1)CC(=O)N1CCC[C@H](C1)CC31OCCCO1 | > 100 µM (inactive) | 64.6 µM (inactive) | > 100 µM (inactive) | > 100 µM (inactive) | > 100 µM (inactive) | > 100 | > 100 µM (inactive) |  | > 100 µM (inactive) |  | > 100 µM (inactive) | > 100 µM (inactive) | > 100 µM (inactive) | > 100 µM (inactive) | > 100 µM (inactive) | > 100 µM (inactive) | > 100 µM (inactive) | 77.1 µM (inactive) | 55 µM (inactive) | > 100 µM (inactive) |
| NCC1Nc2ccccc2[C@@H](O)C1O (some centres undefined) | > 100 µM (inactive) | > 100 µM (inactive) | > 100 µM (inactive) | > 100 µM (inactive) | > 100 µM (inactive) | > 100 | > 100 µM (inactive) | > 100 µM (inactive) | > 100 µM (inactive) |  | > 100 µM (inactive) | > 100 µM (inactive) | > 100 µM (inactive) | > 100 µM (inactive) | > 100 µM (inactive) | > 100 µM (inactive) | > 100 µM (inactive) | > 100 µM (inactive) | > 100 µM (inactive) | > 100 µM (inactive) |
| CC(C)=NOC(=O)OC[C@H]1O[C@@H](n2cnc3c(N)ncnc32)C(O)C1O (some centres undefined) |  | > 100 µM (inactive) | > 100 µM (inactive) | > 100 µM (inactive) | > 100 µM (inactive) | 72.1 | > 100 µM (inactive) | 44.9 µM (inactive) | 91.6 µM (inactive) | > 100 µM (inactive) | > 100 µM (inactive) | > 100 µM (inactive) | > 100 µM (inactive) | > 100 µM (inactive) | 89.3 µM (inactive) | > 100 µM (inactive) | > 100 µM (inactive) | > 10 µM (inactive) |  | > 100 µM (inactive) |
| O=Cc1coc2ccccc2c1=O | 19.2 µM (inactive) | 18.2 µM (inactive) | 16.1 µM (inactive) | 40.6 µM (inactive) | 22.4 µM (inactive) | 14.3 | 19.1 µM (inactive) | 16.9 µM (inactive) | 19.2 µM (inactive) | 19.1 µM (inactive) | 32.1 µM (inactive) | 17.9 µM (inactive) |  | 19.5 µM (inactive) | 18.5 µM (inactive) | 48.1 µM (inactive) | 17.7 µM (inactive) | 19.9 µM (inactive) |  |  |
